Seven compounds from patent publication US7759350B2, “Pyrimidine carboxamides” (Orchid Research Laboratories Ltd., priority 2005, dated 2010) can be followed below.

One series deals with T1, COX-2 (Homo sapiens, UniProt P35354).
T1 construct: Fresh blood was collected in tubes containing sodium heparin by vein puncture from healthy male volunteers; endogenous in cells; host or cells: human whole blood from healthy male volunteers, stimulated with LPS
T1 sequence (P35354 18-604): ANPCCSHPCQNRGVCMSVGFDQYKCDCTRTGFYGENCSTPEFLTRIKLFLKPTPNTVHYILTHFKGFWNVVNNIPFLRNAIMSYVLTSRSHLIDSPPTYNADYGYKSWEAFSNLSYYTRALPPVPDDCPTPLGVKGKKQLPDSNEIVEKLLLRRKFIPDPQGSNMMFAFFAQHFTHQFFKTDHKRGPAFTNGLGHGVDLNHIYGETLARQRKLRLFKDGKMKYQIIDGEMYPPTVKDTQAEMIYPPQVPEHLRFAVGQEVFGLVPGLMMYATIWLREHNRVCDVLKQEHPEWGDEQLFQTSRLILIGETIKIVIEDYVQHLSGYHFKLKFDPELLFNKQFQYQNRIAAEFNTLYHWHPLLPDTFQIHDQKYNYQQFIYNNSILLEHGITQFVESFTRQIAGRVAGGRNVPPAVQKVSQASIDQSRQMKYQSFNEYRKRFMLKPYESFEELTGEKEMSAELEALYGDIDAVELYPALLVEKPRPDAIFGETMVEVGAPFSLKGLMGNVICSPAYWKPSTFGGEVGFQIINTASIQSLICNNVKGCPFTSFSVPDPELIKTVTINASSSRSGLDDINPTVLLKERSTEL
The series is described as follows: Human whole blood assay, COX-2 inhibition (PGE2 after LPS). It is filed as cell-based. The note with it: LPS stimulated; for inhibition at 0.25 µM: Conc. 0.25 μM. Here is the method: Human whole blood provides a protein and cell rich milieu appropriate for the study of biochemical efficacy of anti-inflammatory compounds such as selective COX-2 inhibitors. […] This is correlating with the observation that COX-2 inhibitors have no effect on prostaglandin E2 (PGE2) production in normal blood. These inhibitors were active only after incubation of human blood with lipopolysaccharide (LPS), which induces COX-2 production in the blood.
Fresh blood was collected in tubes containing sodium heparin by vein puncture from healthy male volunteers. […] Then test compounds (at various concentrations) or vehicle were added to blood. After that blood was stimulated with LPS B: 4 (10 μg/ml) and incubated for another 18 hours at 37° C. water bath. After which the blood was centrifuged, plasma was separated and stored at −80° C. (J. Pharmacol. Exp. Ther, 271, 1705, 1994; Proc. Natl. Acad. Sci. USA., 96, 7563, 1999). The plasma was assayed for PGE2 using Cayman ELISA kit as per the procedure outlined by the manufacturer (Cayman Chemicals, Ann Arbor, USA).

Series [1] addresses purified recombinant COX-1 enzyme (Homo sapiens, UniProt P23219). The series is described as follows: COX-1 enzyme based assay. It is filed as biochemical. The note with it: Conc. 10 μM. Here is the method:
(§1) COX-1 and COX-2 Enzyme Based Assay
(§2) COX-2 enzyme based assays were carried out to check the inhibitory potential of test compounds on the production of prostaglandin by purified recombinant COX-1/COX-2 enzyme (Proc. Nat. Acad. Sci. USA, 88, 2692-2696, 1991; Clin. Immunoassay 15, 116-120, 1992) In this assay, the potential of the test compound to inhibit the production of prostaglandin either by COX-1 or COX-2 from arachidonic acid (substrate) was measured. This was an enzyme based in-vitro assay to evaluate selective COX inhibition with good reproducibility.
(§3) Arachidonic acid was converted to PGH2 (Intermediate product) by COX1/COX-2 in presence or absence of the test compound. The reaction was carried out at 37° C. and after 2 minutes it was stopped by adding 1M HCl. Intermediate products PGH2 was converted to a stable Prostanoid product PGF2α by SnCl2 reduction. The amount of PGF2α produced in the reaction was inversely proportional to the COX inhibitory potential of the test compound. The prostanoid product was quantified via enzyme immunoassay (EIA) using a broadly specific antibody that binds to all the major forms of Prostaglandin, using Cayman ELISA kit as per the procedure outlined by the manufacturer Cayman Chemicals, Ann Arbor, USA).

Series [2] addresses T2, purified recombinant COX-2 enzyme (Homo sapiens, UniProt P35354).
T2 sequence (P35354 18-604): T1 sequence (P35354 18-604)
The series is described as follows: COX-2 enzyme based assay. Format: biochemical. The note with it: Conc. 10 μM. How it is done: as §1, §2, §3

Series [3] has as its system TNF-α. The series is described as follows: In vitro measurement of TNF-α in human PBMC. Particulars: LPS; for IC50: TNF-α inhibition. Format: cell-based. How it is done:
In Vitro Measurement of Tumor Necrosis Factor Alpha (TNF-α)
This assay determines the effect of test compounds on the production of TNF-α in human Peripheral Blood Mononuclear Cells (PBMC). Compounds were tested for their ability to inhibit the activity of TNF-α in human PBMC. PBMC were isolated from blood (from healthy volunteers) using BD Vacutainer CPT™ (Cell preparation tube, BD Bio Science) and suspended in RPMI medium (Physiol. Res. 52; 593-598, 2003). The test compounds were pre-incubated with PBMC (0.5 million/incubation well) for 15 minutes at 37° C. and then stimulated with Lipopolysaccharide (Escherichia coli: B4; 1 μg/ml) for 18 hours at 37° C. in 5% CO2. The levels of TNF-α in the cell culture medium were estimated using enzyme linked Immunosorbent assay performed in a 96 well format as per the procedure of the manufacturer (R&D Systems, Inc. 614 McKinley Place Nebr., Minneapolis, Minn. 55413, USA).

In series [4] the test system is TNF-α. The series is described as follows: LPS induced sepsis for measurement of TNF-α inhibition in mice. Format: in vivo. The note with it: 50 mg/kg bw oral; female Swiss albino mice; serum 90 minutes after LPS. Here is the method: LPS Induced Sepsis for Measurement of TNF-α Inhibition in Mice
The LPS induced sepsis model in mice was performed as described by Les sekut et al (J Lab Clin Med 1994; 124:813-20). Female Swiss albino mice were selected with their body weights being equivalent within each group. The mice were fasted for 20 hours with free access to water. The mice were dosed orally with the test compound suspended in vehicle containing 0.5% Tween 80 in 0.25% Carboxy-methylcellulose sodium salt. The control mice were administered the vehicle alone. After 30 minutes of oral dosing, the mice were injected with 500 μg of Lipopolysaccharide (Escherichia coli, LPS: B4 from Sigma) in phosphate buffer saline solution into the intraperitoneal cavity of the mice. After 90 minutes of LPS administration, the mice were bled via retro-orbital sinus puncture. Blood samples were stored overnight at 4° C. Serum samples were collected by centrifuging the samples at 4000 rpm for 15 minutes at 4° C. Immediately the serum samples were analysed for TNF-α levels, using commercially available mouse TNF-α ELISA kit (Amersham Biosciences) and assay was performed by the manufacturer instruction.

In the next series the test system is NCI-H460. The series is described as follows: Anti-cancer screen (MTT), NCI-H460. Format: cell-based. The note with it: Homo sapiens, NCI-H460; 48 hours, MTT. Here is the method: Experimental drugs are screened for anti-cancer activity in three cell lines for their GI50, TGI and LC50 values (using five concentrations for each compound). The cell lines are maintained in DMEM containing 10% fetal bovine serum. 96 well microtiter plates are inoculated with cells in 100 μL for 24 h at 37° C., 5% CO2, 95% air and 100% relative humidity. 5000 HCT116 cells/well, 5000 NCIH460 cells/well, 10000 U251 cells/well and 5000 MDAMB231 cells/well are plated. A separate plate with these cell lines is also inoculated to determine cell viability before the addition of the compounds (T0).
Following 24 hours incubation, experimental drugs are added to the 96 well plates. […] Compounds are dissolved in dimethylsulfoxide (DMSO) to make 20 mM stock solutions on the day of drug addition and frozen at −20° C. […] Standard drugs whose anti-cancer activity has been well documented and which are regularly used are doxorubicin and SAHA.
Cells are incubated with compounds for 48 hours followed by the addition of 10 μL 3-(4,5-Dimethyl-2-thiazolyl)-2,5-diphenyl-2H-tetrazolium (MTT) solution per well and a subsequent incubation at 37° C., 5% CO2, 95% air and 100% relative humidity, protected from light. After 4 hours, well contents are aspirated carefully followed by addition of 150 μL DMSO per well. Plates are agitated to ensure solution of the formazan crystals in dimethylsulphoxide and absorbance read at 570 nm.
Percent growth is calculated for each compound's concentration relative to the control and zero measurement wells (To; viability right before compound addition). If a test well's O.D. value is greater than the To measurement for that cell line % Growth=(test−zero)/(control−zero)×100
If a test well's O.D. value is lower than the T0 measurement for that cell line, […]

Another series has as its system IL-6. The series is described as follows: In vitro measurement of IL-6 in human PBMC. It is filed as cell-based. The note with it: Conc. 0.1 μM, LPS. Here is the method:
(§4) In vitro Measurement of Interleukin-6 (IL-6) & Interleukin-1β (IL1β)
(§5) This assay determines the effect of test compounds on the production of IL-6 and IL1β in human PBMC (Physiol. Res. 52: 593-598, 2003). Compounds were tested for their ability to inhibit the activity of IL-6 and IL1β in human PBMC. PBMC were isolated from blood using BD Vacutainer CPT™ Cell preparation tube (BD Bio Science) and suspended in RPMI medium. The test compounds were preincubated with PBMC (0.5 million/incubation well) for 15 minutes at 37° C. and then stimulated with Lipopolysaccharide (Escherichia coli: B4; 1 μg/ml) for 18 hours at 37° C. in 5% CO2. The levels of IL-6 and IL1β in cell culture medium were estimated using enzyme linked Immunosorbent assay performed in a 96 well format as per the procedure of the manufacturer (R&D Systems, Inc. 614 McKinley Place Nebr., Minneapolis, Minn. 55413, USA).

The test system of a further series is IL-1β. Briefly: In vitro measurement of IL-1β in human PBMC. The note with it: Conc. 0.1 μM, LPS. Format: cell-based. Here is the method:
as §4, §5

Usually inhibition stands for the relative decrease from the control value, in per cent. One may read the IC50 as the point on the concentration scale where inhibition reaches its midpoint. Lower therefore signals greater potency in that assay. In general, GI50 refers to the concentration that inhibits growth by half. Usually melting point stands for the temperature, or range, at which the solid turns liquid.

purified recombinant COX-1 enzyme, sequence (P23219 24-599): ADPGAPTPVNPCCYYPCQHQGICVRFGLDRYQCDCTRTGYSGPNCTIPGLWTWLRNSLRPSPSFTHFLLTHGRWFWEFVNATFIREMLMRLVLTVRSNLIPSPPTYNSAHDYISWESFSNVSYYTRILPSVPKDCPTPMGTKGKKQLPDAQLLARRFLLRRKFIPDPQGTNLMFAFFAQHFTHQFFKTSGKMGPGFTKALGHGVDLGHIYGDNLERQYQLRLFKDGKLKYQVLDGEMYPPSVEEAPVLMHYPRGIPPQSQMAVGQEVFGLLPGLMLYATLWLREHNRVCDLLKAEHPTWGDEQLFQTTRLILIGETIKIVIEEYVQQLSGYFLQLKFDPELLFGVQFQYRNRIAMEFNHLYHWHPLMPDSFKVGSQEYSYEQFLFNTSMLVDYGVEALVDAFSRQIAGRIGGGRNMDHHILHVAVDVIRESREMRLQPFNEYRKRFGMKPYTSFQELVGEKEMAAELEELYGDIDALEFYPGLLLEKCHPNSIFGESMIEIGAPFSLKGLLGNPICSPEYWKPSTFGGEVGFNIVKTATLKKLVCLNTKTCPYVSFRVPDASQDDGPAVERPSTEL

In turn, `CNc1nc(-c2ccc(S(N)(=O)=O)cc2)nc(NC)c1C(=O)Nc1ccc(C)c(C)c1` [Example 10, 2-[4-(Aminosulfonyl)phenyl]-4,6-bis(methylamino)-N-(3,4-dimethylphenyl)pyrimidine-5-carboxamide] gave an inhibition at 10 µM at COX-2 (Conc. 10 μM) of 24.2%.
For the compound `CSc1nc(-c2ccncc2)nc(NCCO)c1C(=O)Nc1ccc(C)cc1` [Example 35, 4-[(2-Hydroxyethyl)amino]-N-(4-methylphenyl)-6-(methylthio)-2-pyridin-4-ylpyrimidine-5-carboxamide], in series [1], the inhibition at 10 µM came out at 15.2%. For the same compound, the inhibition at 10 µM in [2] worked out at 26.8%. Further, in the series on TNF-α [3], 1800 nM corresponded to half-maximal inhibition (IC50) and the inhibition at 1 µM was determined as 52.7%. For the same compound, the “TNF-α Inhibition (%) at 50 mg/kg bw” value with TNF-α [4] worked out at 59.94%. The compound also gave a GI50 in the series with NCI-H460 of 9000 nM.
Compound `CNc1nc(-c2ccc(S(N)(=O)=O)cc2)nc(SC)c1C(=O)Nc1ccc(C)cc1` [Example 12, 2-[4-(Aminosulfonyl)phenyl]-4-(methylamino)-N-(4-methylphenyl)-6-(methylthio)pyrimidine-5-carboxamide] yielded an inhibition at 0.25 µM against COX-2 of 24.9%.
In the case of `CNc1nc(-c2cccnc2)nc(NC)c1C(=O)Nc1ccc(OC)cc1` [Example 28, N-(4-Methoxyphenyl)-4,6-bis(methylamino)-2-pyridin-3-ylpyrimidine-5-carboxamide], the inhibition at 10 µM came out at 25.5% in series [1] and 23.2% in [2]. This compound also had an IC50 in the series on TNF-α [3] of 900 nM. For the same compound, 1 µM produced 45.1% inhibition in the series with TNF-α [3]. In addition, in the series with TNF-α [4], the “TNF-α Inhibition (%) at 50 mg/kg bw” value turned out to be 81.5%.
`CNc1nc(-c2cccnc2)nc(SC)c1C(=O)Nc1ccc(OC)cc1` [Example 6, N-(4-Methoxyphenyl)-4-(methylamino)-6-(methylthio)-2-pyridin-3-ylpyrimidine-5-carboxamide] gave a melting point of 184 to 197 °C. The inhibition at 10 µM in [1] was 28.8%. Besides, in series [2], the inhibition at 10 µM is 19.3%. In the series on TNF-α [3], this compound gave an IC50 of 860 nM. Besides, the inhibition at 0.1 µM in the series with TNF-α [3] (at 0.1 μM) was found to be 30.3%. Besides, the “TNF-α Inhibition (%) at 50 mg/kg bw” value in the series with TNF-α [4] is reported as 77.0%.
Consider `CSc1nc(-c2ccncc2)nc(NCCO)c1C(=O)Nc1ccc(C)c(C)c1` [Example 37, N-(3,4-Dimethylphenyl)-4-[(2-hydroxyethyl)amino]-6-(methylthio)-2-pyridin-4-ylpyrimidine-5-carboxamide], for which the inhibition at 10 µM came to 6.58% in [1] and 17.1% in series [2]. Besides, half-maximal inhibition in the series on TNF-α [3] (IC50) required 1500 nM. In addition, at 1 µM the inhibition in the series with TNF-α [3] was 42.7%. Further, in the series on TNF-α [4], the “TNF-α Inhibition (%) at 50 mg/kg bw” value is 66.65%.
At COX-2, `CNc1nc(-c2ccc(S(N)(=O)=O)cc2)nc(NC)c1C(=O)Nc1ccc(C)cc1` [Example 13, 2-[4-(Aminosulfonyl)phenyl]-4,6-bis(methylamino)-N-(4-methylphenyl)pyrimidine-5-carboxamide] showed an inhibition at 0.25 µM of 24.5%. In the series on IL-6, the inhibition at 0.1 µM came to 21.5%. In addition, in the series with IL-1β, the “IL-1β Inhibition (%)” value is “Not active”.
